Entries after “also recorded” stand apart in the source; their conditions may differ. Read-outs that look alike come from different tables or passages of the source.
Columns and labels:
[1] = In vivo covalent protein binding of 3H-labelled compound; conditions: Rat @ 6 h, 20 mg/kg oral
Description: In-Vivo Covalent Binding^4: […] Plasma and liver were collected and flash frozen/stored at −80° C. before analysis. Counting of the plasma samples: Place a 200 μL aliquot in a 20 mL scintillation vial. Add 500 μL of SOLVABLE™ and incubate at 1 h with shaking at 55° C. Remove, allow to cool prior to the addition of 15 mL scintillation cocktail, and count. […] Tissue homogenization: […] Counting of the liver homogenate: Aliquots were placed in a 20 mL scintillation vial, diluted with 1 mL of SOLVABLE™ and incubated for 1 h with shaking at 55° C. After removal from the incubator and cooling 15 mL scintillation cocktail and 30% H2O2 were added and the radioactivity counted. Protein precipitation: […] Protein precipitate resuspension: Sonication (minimal intensity, <5 sec) and vortexing until the pellet crumbles in 80% MeOH:20% water. Wash of the protein pellet: 2-5 mL 80:20 MeOH:water. If needed, remove 1.0 mL of the supernatant, add 15 mL of scintillation cocktail and count. Continue to wash the protein pellet until radioactivity in supernatant is <200 DPM or DPMs cease to decrease by more than 200 in consecutive washes. Dissolution of the final pellet: 1 mL of 1 N NaOH or Solvable™, incubated at 50° C. overnight or until completely dissolved. Counting of the final pellet: 1 mL of dissolved pellet, 15 mL scintillation cocktail (if another scintillation cocktail other than ULTIMA GOLD™ is used, pellet may require neutralization using 1 N HCl), and count. Protein concentration of the final pellet: BCA or BIO-RAD kit using BSA as a standard. Counting blank samples: 15 mL scintillation cocktail, in duplicate. Counting of the dosing solution: count a known volume of the dosing solution in triplicate. Data Analysis: Average the radioactivity counts (DPM) of the dosing solution and calculate the specific activity of the dosing solution in μCi/mol. Average the radioactivity counts of the blank samples. Subtract the counts of the averaged blank sample from the counts obtained from each liver and plasma pellet. Calculate the amount of radioactivity (μCi) per unit volume (L) for each liver and plasma pellet. Calculate the concentration of radioactivity in each plasma and liver pellet by dividing the value obtained above (μCi/L) by the specific activity (μCi/mol). Calculate the amount of covalently bound radioactivity to protein in pmol/mg protein.

[2] = Rat pharmacokinetics per os (plasma AUC, liver concentration)
Description: (§1) Plasma samples were collected at time points between 2 minutes and 24 h, and compound levels were determined by RP-HPLC. Liver samples were collected post mortem in rat and following anesthesia (0.5 h prior to biopsy) in dog. Liver samples were weighed, homogenized, and diluted using techniques known to those skilled in the art, and compound levels were determined by RP-HPLC.
(§2) Pharmacokinetic parameters were calculated based on non-compartmental analysis (e.g., using WATSON®, WINNOLIN®). Predose concentrations that were below the limit of quantitation (BLQ) were assigned a value of 0. […] AUC values were calculated using linear trapezoidal method for ascending concentrations and the log trapezoidal method for descending concentrations.

[3] = Dog pharmacokinetics per os (plasma AUC, liver concentration)
Description: as §1, §2

[4] = Physical properties: equilibrium solubility and salt disproportionation (XRPD, NMR); format: physicochemical
Description: After centrifuging, the supernatant was analyzed by reversed-phase HPLC and the equilibrium solubility determined by comparison with a calibration curve. The solid material was in part transferred onto an XRPD plate, dried and then analyzed by X-Ray Powder Diffraction. The XRPD pattern was compared with positive controls for crystalline K+ salt, crystalline zwitterionic (or acidic) and amorphous forms of the test compound.

NS 3/4A 1b = NS 3/4A 1b (Hepatitis C virus genotype 1b, UniProt P26663); test: biochemical; conditions: genotype 1b enzyme; read-out: NS 3/4A Inhibitory Activity (Ki) lb
Sequence of NS 3/4A 1b (P26663 1027-1657): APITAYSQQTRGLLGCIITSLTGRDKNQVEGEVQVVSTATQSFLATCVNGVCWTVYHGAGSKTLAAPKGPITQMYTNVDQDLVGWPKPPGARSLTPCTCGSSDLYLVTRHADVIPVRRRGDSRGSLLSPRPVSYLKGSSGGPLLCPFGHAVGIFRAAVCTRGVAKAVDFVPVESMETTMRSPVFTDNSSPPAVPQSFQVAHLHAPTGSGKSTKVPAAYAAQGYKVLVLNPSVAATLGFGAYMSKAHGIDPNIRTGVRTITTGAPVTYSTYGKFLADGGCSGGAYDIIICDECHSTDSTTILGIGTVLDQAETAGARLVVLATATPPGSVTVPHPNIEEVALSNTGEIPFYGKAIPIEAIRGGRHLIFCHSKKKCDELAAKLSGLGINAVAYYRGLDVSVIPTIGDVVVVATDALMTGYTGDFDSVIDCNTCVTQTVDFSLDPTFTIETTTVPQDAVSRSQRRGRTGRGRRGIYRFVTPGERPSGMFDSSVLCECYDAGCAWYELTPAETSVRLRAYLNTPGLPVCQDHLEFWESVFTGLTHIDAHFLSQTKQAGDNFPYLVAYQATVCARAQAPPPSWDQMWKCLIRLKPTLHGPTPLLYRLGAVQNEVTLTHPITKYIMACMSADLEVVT
Sequence of NS 3/4A 1b (P26663 1658-1711): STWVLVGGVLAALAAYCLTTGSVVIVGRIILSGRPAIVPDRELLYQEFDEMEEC
Description: A NS3 protease assay can be performed, for example, in a final volume of 100 μl assay buffer containing 50 mM HEPES, pH 7.5, 150 mM NaCl, 15% glycerol, 0.15% TRITON X-100, 10 mM DTT, and 0.1% PEG 8000. NS3 and NS4A protease is pre-incubated with various concentrations of inhibitors in DMSO for 30 minutes. The reaction is initiated by adding the TRF peptide substrate (final concentration 100 nM). NS3 mediated hydrolysis of the substrate is quenched after 1 hour at room temperature with 100 μl of 500 mM MES, pH 5.5. […] IC50 values are derived using a standard four-parameter fit to the data. […] See P. Gallinari et al., 38 BIOCHEM. […] BIOCHEM. […] V. General Compound Production
NS 3/4A Inhibitory Activity^1 (Ki): NS 3/4A Inhibitory Activity was determined as described in Section IV.

HCV replicon gt1b = test: HCV replicon activity, genotype 1b; format: cell-based; conditions: Hepatitis C virus; genotype 1b replicon; 50% viral replication suppression; read-out: Replicon Activity EC50 gtlb

Structure (SMILES)	Covalent Protein Binding In Vivo, liver [1]	Covalent Protein Binding In Vivo, plasma [1]	Rat Liver Concentration @ 24 h (25 mpk per os) ([2]; 25 mpk per os)	Dog Liver Concentration @ 24 h (5mpk per os) ([3]; 5 mpk per os)	Covalent Protein Binding In Vivo, liver ([1]; LOQ = 3 pmol/mg)	other results
C=C[C@@H]1C[C@]1(NC(=O)[C@@H]1C[C@@H]2CN1C(=O)[C@H](C1CCCC1)NC(=O)O[C@@H]1CCC[C@H]1CCCCCc1nc3ccccc3cc1O2)C(=O)NS(=O)(=O)C1CC1 [WO 2008/057209 Example 96]	liver = 63 pmol eq./mg	plasma = 6 pmol eq./mg	–	–	–	–
C=C[C@@H]1C[C@]1(NC(=O)[C@@H]1C[C@@H]2CN1C(=O)[C@H](C(C)(C)C)NC(=O)O[C@@H]1C[C@H]1CCCCCc1nc3ccc(OC)cc3nc1O2)C(=O)[N-]S(=O)(=O)C1CC1.[K+] [Example 1, Potassium {[(1R,2S)-1-({[(1aR,5S,8S,10R,22aR)-5-tert-butyl-14-methoxy-3,6-dioxo-1,1a,3,4,5,6,9,10,18,19,20,21,22,22a-tetradecahydro-8H-7,10-methanocyclopropa[18,19][1,10,3,6]dioxadiazacyclononadecino[11,12-b]quinoxalin-8-yl]carbonyl}amino)-2-vinylcyclopropyl]carbonyl}(cyclopropylsulfonyl)azanide]	–	–	27.9 µM	120 µM	liver = LOQ	Rat Plasma AUC @ 25mpk per os ([2]; 25 mpk per os, plasma): 20.6 µM·h; Dog Plasma AUC @ 5mpk per os ([3]; 5 mpk per os, plasma): 48.6 µM·h; Covalent Protein Binding In Vivo, plasma ([1]; LOQ = 3 pmol/mg, 20 mg/kg): undetectable binding; also recorded: plasma = LOQ,; solubility at 24 h ([4]; thermodynamic from solid; K+ salt form, water; read-out: Aqueous solubility of K+ salt form): 1800 µg/mL
C=C[C@@H]1C[C@]1(NC(=O)[C@@H]1C[C@@H]2CN1C(=O)[C@H](C1CCCC1)NC(=O)O[C@@H]1CCC[C@H]1CCCCCc1nc3ccccc3nc1O2)C(=O)NS(=O)(=O)C1CC1 [WO 2008/057209 Example 108]	liver = 38 pmol eq./mg	plasma = 15 pmol eq./mg	–	–	–	–
C=C[C@@H]1C[C@]1(NC(=O)[C@@H]1C[C@@H]2CN1C(=O)[C@H](C(C)(C)C)NC(=O)O[C@@H]1CCC[C@H]1CCCCCc1nc3ccc(OC)cc3cc1O2)C(=O)NS(=O)(=O)C1CC1 [WO 2008/057209 Example 103]	liver = 24 pmol eq./mg	plasma = 6 pmol eq./mg	–	–	–	–
C=C[C@@H]1C[C@]1(NC(=O)[C@@H]1C[C@@H]2CN1C(=O)[C@H](C(C)(C)C)NC(=O)O[C@@H]1C[C@H]1CCCCCc1nc3ccc(OC)cc3cc1O2)C(=O)NS(=O)(=O)C1CC1 [WO 2008/057209 Example 110]	–	–	8.5 µM	3.3 µM	liver = BLQ	Ki (NS 3/4A 1b): < 0.016 nM; EC50 (HCV replicon gt1b): 5 nM; AUC ([2]; plasma, po, 25 mg/kg): 5.8 µM·h; AUC ([3]; plasma, po, 5 mg/kg): 1 µM·h; Covalent Protein Binding In Vivo, plasma ([1]; LOQ = 3 pmol/mg): plasma = BLQ,; solubility at 24 h ([4]; water, thermodynamic from solid, K+ salt form, read-out: Aqueous solubility of K+ salt form): 9700 µg/mL; solubility at 24 h ([4]; water, thermodynamic from solid, crystalline zwitterionic form from disproportionation of the K+ salt, read-out: Aqueous solubility of crystalline zwitterionic form): < 9 µg/mL

Source: patent US8080654B2, “Macrocyclic quinoxaline compounds as HCV NS3 protease inhibitors” (Insituto di Ricerche di Biologia Molecolare P. Angeletti SpA, priority 2008, dated 2011)
